Source: DBAASP
Converted amounts (≈) assume the structure as drawn.

Key:
Assay in all cases: ≥ marks a high value that may be exact or a test limit, other limits are often not marked, values filed in µg/mL are converted to µM
[1] = test system: Klebsiella pneumoniae ATCC 700603
[2] = test system: Pseudomonas aeruginosa ATCC 9027
[3] = test system: Bacillus subtilis ATCC 23857
[4] = test system: Escherichia coli ATCC 25922
[5] = test system: Staphylococcus aureus ATCC 25923
[6] = test system: Staphylococcus aureus ATCC 6538
Staphylococcus aureus = test system: Staphylococcus aureus
Acinetobacter baumannii = test system: Acinetobacter baumannii
[7] = test system: Candida albicans ATCC 90028
[8] = test system: Candida albicans ATCC 2002

Row | Compound | MIC [4] | MIC [2] | MIC [6] | further results
1 | CC[C@H](C)[C@H](NC(=O)[C@H](CCCCN)NC(=O)[C@H](CCCCN)NC(=O)[C@H](C)NC(=O)[C@@H](NC(=O)[C@H](C)NC(=O)[C@H](CC(C)C)NC(=O)[C@H](CC(C)C)NC(=O)[C@H](C)NC(=O)[C@H](CCCCN)NC(=O)[C@H](CC(C)C)NC(=O)[C@H](CC(N)=O)NC(=O)[C@H](C)N)C(C)C)C(=O)N[C@@H](CC(C)C)C(N)=O [ANLKALLAVAKKIL] | 4 µM (≈ 5.86 µg/mL) | 16 µM (≈ 23.4 µg/mL) |  | MIC [1]: 16 µM (≈ 23.4 µg/mL); MIC [3]: 4 µM (≈ 5.86 µg/mL); MIC [5]: 32 µM (≈ 46.9 µg/mL)
2 | CC[C@H](C)[C@H](NC(=O)CNC(=O)[C@@H](N)CS)C(=O)N[C@H](C(=O)N[C@@H](C)C(=O)NCC(=O)N[C@H](C(=O)N[C@H](C(=O)N[C@H](C(=O)N[C@@H](CCCCN)C(=O)N[C@H](C(=O)N[C@@H](CCCCN)C(=O)N[C@@H](CCCCN)C(=O)N[C@@H](CS)C(N)=O)[C@@H](C)CC)[C@@H](C)CC)[C@@H](C)CC)[C@@H](C)CC)[C@@H](C)CC [CGIIAGIIIKIKKC] | > 128 µM |  |  | MIC [3]: ≥ 32 µM
3 | CC(C)C[C@H](NC(=O)[C@H](C)NC(=O)[C@H](CC(C)C)NC(=O)[C@H](CCCCN)NC(=O)[C@H](C)NC(=O)[C@H](CC(C)C)NC(=O)[C@H](CCCCN)NC(=O)[C@H](CCCCN)NC(=O)[C@H](CC(C)C)NC(=O)[C@H](CCCCN)NC(=O)[C@H](CCCCN)NC(=O)[C@H](C)NC(=O)[C@H](CC(C)C)NC(=O)[C@H](CCCCN)NC(=O)[C@H](CCCCN)NC(=O)[C@H](C)NC(=O)[C@@H](N)Cc1ccccc1)C(=O)N[C@@H](C)C(=O)N[C@@H](CCCCN)C(N)=O [FAKKLAKKLKKLAKLALAK] |  | 4.74 µM (≈ 10 µg/mL) | 4.74 µM (≈ 10 µg/mL) | 
4 | CC(C)C[C@H](NC(=O)[C@H](C)NC(=O)[C@H](CC(C)C)NC(=O)[C@H](C)NC(=O)[C@H](CCCCN)NC(=O)[C@H](CCCCN)NC(=O)[C@H](C)NC(=O)[C@H](CC(C)C)NC(=O)[C@H](CCCCN)NC(=O)[C@H](C)NC(=O)[C@H](CC(C)C)NC(=O)[C@H](CCCCN)NC(=O)[C@H](CCCCN)NC(=O)[C@H](C)NC(=O)[C@@H](N)Cc1ccccc1)C(N)=O [FAKKLAKLAKKALAL] |  | 15.5 µM (≈ 25 µg/mL) | 62 µM (≈ 99.9 µg/mL) | 
5 | CC[C@H](C)[C@H](NC(=O)[C@H](CCCCN)NC(=O)[C@H](CCCCN)NC(=O)[C@H](C)NC(=O)[C@H](CC(C)C)NC(=O)[C@H](CCCCN)NC(=O)[C@H](C)NC(=O)[C@H](CC(C)C)NC(=O)[C@H](CC(C)C)NC(=O)[C@H](CCCCN)NC(=O)[C@H](C)NC(=O)[C@@H](N)Cc1ccccc1)C(=O)N[C@@H](CC(C)C)C(N)=O [FAKLLAKLAKKIL] |  | 68.6 µM (≈ 99.9 µg/mL) | 6.86 µM (≈ 9.99 µg/mL) | 
6 | CC(C)C[C@H](NC(=O)[C@H](C)NC(=O)[C@H](CCCCN)NC(=O)[C@H](CCCCN)NC(=O)[C@H](C)NC(=O)[C@H](CC(C)C)NC(=O)[C@H](CCCCN)NC(=O)[C@H](CCCCN)NC(=O)[C@H](CC(C)C)NC(=O)[C@H](CCCCN)NC(=O)[C@H](CCCCN)NC(=O)[C@H](C)NC(=O)[C@H](CC(C)C)NC(=O)[C@H](CCCCN)NC(=O)[C@H](CCCCN)NC(=O)[C@H](CC(C)C)NC(=O)[C@H](C)NC(=O)[C@H](CCCCN)NC(=O)[C@H](CC(C)C)NC(=O)[C@H](C)NC(=O)[C@H](CC(C)C)NC(=O)[C@H](C)NC(=O)[C@@H](N)Cc1ccccc1)C(N)=O [FALALKALKKLAKKLKKLAKKAL] |  | 1.97 µM (≈ 5 µg/mL) | 3.94 µM (≈ 10 µg/mL) | 
7 | CC[C@H](C)[C@H](NC(=O)CN)C(=O)N[C@H](C(=O)N[C@@H](CCCCN)C(=O)NCC(=O)N[C@H](C(=O)N[C@H](C(=O)N[C@@H](CCCCN)C(=O)N[C@H](C(=O)N[C@H](C(=O)N[C@@H](CCCCN)C(=O)N[C@@H](C)C(N)=O)[C@@H](C)CC)[C@@H](C)CC)[C@@H](C)CC)[C@@H](C)CC)[C@@H](C)CC [GIIKGIIKIIKA] | 128 µM (≈ 162 µg/mL) |  |  | MIC [3]: 4 µM (≈ 5.06 µg/mL)
8 | CC(C)C[C@H](NC(=O)CNC(=O)[C@@H](NC(=O)[C@@H]1CCCN1C(=O)[C@H](CC(C)C)NC(=O)CNC(=O)[C@H](CC(N)=O)NC(=O)[C@H](CC(N)=O)NC(=O)[C@H](Cc1ccccc1)NC(=O)[C@@H](NC(=O)[C@H](CCCN=C(N)N)NC(=O)[C@H](CS)NC(=O)[C@H](CCCN=C(N)N)NC(=O)[C@H](Cc1cnc[nH]1)NC(=O)[C@H](CCCCN)NC(=O)[C@H](CCCCN)NC(=O)[C@H](CCCN=C(N)N)NC(=O)[C@@H](N)CCCCN)C(C)C)[C@@H](C)O)C(=O)N[C@@H](Cc1ccc(O)cc1)C(=O)N[C@@H](CCCN=C(N)N)C(=O)N[C@@H](Cc1c[nH]c2ccccc12)C(=O)N[C@@H](CS)C(N)=O [KRKKHRCRVFNNGLPTGLYRWC] |  |  | 4.1 µM (≈ 11.2 µg/mL) | 
9 | CC[C@H](C)[C@H](NC(=O)[C@@H](NC(=O)[C@@H](NC(=O)[C@@H]1CCCN1C(=O)[C@H](Cc1c[nH]c2ccccc12)NC(=O)[C@H](Cc1ccccc1)NC(=O)[C@H](CCCN=C(N)N)NC(=O)[C@H](CCCCN)NC(=O)[C@@H](NC(=O)[C@@H](N)CCCN=C(N)N)[C@@H](C)CC)C(C)C)C(C)C)C(=O)N[C@@H](CCCN=C(N)N)C(=O)N[C@H](C(=O)N[C@H](C(=O)N[C@H](C(=O)N[C@@H](C)C(=O)NCC(=O)N[C@@H](Cc1ccc(O)cc1)C(=O)N[C@@H](CC(N)=O)C(=O)O)C(C)C)C(C)C)[C@@H](C)O [RIKRFWPVVIRTVVAGYN] |  |  |  | MIC [8]: ≥ 69 µM

More lines, main results first:

Row | MIC [4] | Compound | MIC [2] | MIC [6] | further results
10 | 5 µM (≈ 14.2 µg/mL) | CC[C@H](C)[C@H](NC(=O)[C@H](CCCCN)NC(=O)[C@H](Cc1ccccc1)NC(=O)[C@H](C)NC(=O)[C@H](CCCCN)NC(=O)CNC(=O)[C@H](CC(C)C)NC(=O)[C@H](CC(C)C)NC(=O)[C@H](CO)NC(=O)CNC(=O)[C@H](CC(C)C)NC(=O)CN)C(=O)NCC(=O)N[C@@H](CC(C)C)C(=O)N[C@@H](CCCCN)C(=O)N[C@H](C(=O)N[C@H](C(=O)NCC(=O)N[C@@H](CCCCN)C(=O)N[C@@H](CCSC)C(=O)N[C@@H](CCSC)C(=O)NCC(=O)NCC(=O)N[C@@H](C)C(=O)N1CCC[C@H]1C(=O)N[C@@H](CCCNC(=N)N)C(=O)N[C@@H](CCC(=O)O)C(=O)N[C@@H](CCC(N)=O)C(=O)O)C(C)C)[C@@H](C)O [GLGSLLGKAFKIGLKTVGKMMGGAPREQ] |  |  | MIC (Staphylococcus aureus): 5.66 µM (≈ 16.1 µg/mL); MIC (Acinetobacter baumannii): 5.66 µM (≈ 16.1 µg/mL); MIC [7]: 25 µM (≈ 71.1 µg/mL); MIC [5]: 5 µM (≈ 14.2 µg/mL)
11 | > 64 µM | CC[C@H](C)[C@H](NC(=O)[C@@H](NC(=O)[C@H](CCCCN)NC(=O)[C@H](CCCCN)NC(=O)[C@H](CC(C)C)NC(=O)CN)C(C)C)C(=O)N[C@@H](CCCCN)C(=O)N[C@@H](CC(C)C)C(=O)N[C@@H](CC(C)C)C(=O)N[C@@H](CCCN=C(N)N)C(=O)N1CCC[C@H]1C(=O)N[C@@H](CC(C)C)C(=O)N[C@@H](CC(C)C)C(=O)O [GLKKVIKLLRPLL] | 16 µM (≈ 23.9 µg/mL) |  | MIC [1]: > 64 µM; MIC (Acinetobacter baumannii): ≥ 32 µM; MIC [5]: 32 µM (≈ 47.7 µg/mL)
12 | 6.53 µM (≈ 16 µg/mL) | CC[C@H](C)[C@H](NC(=O)[C@@H](NC(=O)[C@@H]1CCCN1C(=O)[C@@H](NC(=O)[C@@H]1CCCN1C(=O)[C@H](CCCCN)NC(=O)[C@H](CCCCN)NC(=O)[C@H](CO)NC(=O)CN)C(C)C)[C@@H](C)CC)C(=O)N[C@@H](Cc1ccc(O)cc1)C(=O)N[C@H]1CSSC[C@@H](C(=O)N[C@@H](CCC(N)=O)C(=O)N[C@@H](CCCN=C(N)N)C(=O)N[C@@H](CCSC)C(=O)O)NC(=O)[C@H](CCCCN)NC(=O)[C@H](C)NC(=O)[C@H]([C@@H](C)O)NC(=O)[C@H](CCCN=C(N)N)NC(=O)[C@H](CCCN=C(N)N)NC(=O)[C@H](CC(N)=O)NC1=O [GSKKPVPIIYCNRRTAKCQRM] |  |  | MIC [1]: 6.53 µM (≈ 16 µg/mL)
